{
  "source": "paper PMC10385868",
  "about": "(Viruses, 2023)",
  "key": {"in vitro [1]": {"assay": "in vitro", "details": "human"}, "EEEV [2]": {"system": "EEEV", "assay": "microbe, parasite or virus in culture", "type": "cell-based", "details": "Eastern equine encephalitis virus, A549, read-out: EEEV EC50"}, "[3]": {"details": "rat, microsomes"}, "VEEV-TC83": {"system": "VEEV-TC83", "assay": "microbe, parasite or virus in culture", "type": "cell-based", "details": "Venezuelan equine encephalitis virus, HeLa, read-out: VEEV-TC83 EC50"}, "VEEV nsP2 protease [4]": {"molecular_target": "T1, VEEV nsP2 protease (Venezuelan equine encephalitis virus, UniProt P27282)", "T1 sequence (P27282 1003-1322 limits assumed)": "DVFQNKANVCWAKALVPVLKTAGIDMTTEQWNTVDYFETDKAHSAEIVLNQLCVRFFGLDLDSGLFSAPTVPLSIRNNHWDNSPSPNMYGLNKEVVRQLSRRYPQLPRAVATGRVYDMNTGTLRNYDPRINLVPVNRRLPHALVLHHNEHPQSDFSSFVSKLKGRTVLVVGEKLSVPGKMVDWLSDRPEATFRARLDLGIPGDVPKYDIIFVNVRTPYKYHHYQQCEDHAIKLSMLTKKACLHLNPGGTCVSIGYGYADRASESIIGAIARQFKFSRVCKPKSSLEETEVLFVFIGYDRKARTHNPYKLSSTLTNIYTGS", "assay": "biochemical"}, "in vitro [5]": {"assay": "in vitro", "details": "PAMPA"}, "CHIKV [6]": {"system": "CHIKV", "assay": "microbe, parasite or virus in culture", "type": "cell-based", "details": "Chikungunya virus, U2OS, read-out: CHIKV EC50"}, "in vitro [7]": {"assay": "in vitro", "details": "SD, rat, microsomes"}, "WEEV [8]": {"system": "WEEV", "assay": "microbe, parasite or virus in culture", "type": "cell-based", "details": "Western equine encephalitis virus, HeLa, read-out: WEEV EC50"}, "VEEV-Trinidad": {"system": "VEEV-Trinidad", "assay": "microbe, parasite or virus in culture", "type": "cell-based", "details": "Venezuelan equine encephalitis virus"}, "in vitro [9]": {"assay": "in vitro"}, "VEEV nsP2 protease [10]": {"molecular_target": "T1, VEEV nsP2 protease", "assay": "biochemical", "type": "biochemical"}, "VEEV-Trd": {"system": "VEEV-Trd", "assay": "microbe, parasite or virus in culture", "type": "cell-based, Venezuelan equine encephalitis virus"}, "in vitro [11]": {"assay": "in vitro", "details": "African green monkey"}, "VEEV Trinidad": {"system": "VEEV Trinidad", "type": "cell-based, Venezuelan equine encephalitis virus"}, "EEEV [12]": {"system": "EEEV", "type": "cell-based, eastern equine encephalitis virus"}, "WEEV [13]": {"system": "WEEV", "type": "cell-based, Western equine encephalitis virus"}, "CHIKV [14]": {"system": "CHIKV", "type": "cell-based, Chikungunya virus"}, "VEEV": {"system": "VEEV", "type": "cell-based, Venezuelan equine encephalitis virus"}, "[15]": {"details": "Venezuelan equine encephalitis virus"}},
  "note": "Where “and” joins values, the source holds several entries; their conditions need not be identical. Equal values may be shown once. Read-outs that look alike come from different tables or passages of the source.",
  "data": [
    {"smiles": "CC(C)CCNC(=O)[C@H](CC(C)C)NC(=O)[C@H]1O[C@@H]1C(=O)NCc1ccncc1", "note": "[NCGC00488908-01]", "values": [
      {"measurement": "CC50", "setting": "in vitro [1]", "value": "> 50", "unit": "µM"},
      {"measurement": "PAMPA", "value": 7.6, "unit": "×10⁻⁶ cm/s"},
      {"measurement": "EC50", "setting": "EEEV [2]", "value": "≥ 100", "unit": "µM"},
      {"measurement": "Rat_SD/Microsomes t1/2", "setting": "[3]", "value": ">30", "unit": "m"},
      {"measurement": "EC50", "setting": "VEEV-TC83", "value": 9.23, "unit": "µM"},
      {"measurement": "kinact/KI", "setting": "VEEV nsP2 protease [4]; read-out: VEEV nsP2 PROTEASE k2/Ki", "value": 23, "unit": "M⁻¹ s⁻¹"},
      {"measurement": "solubility", "setting": "physchem", "value": "> 60", "unit": "µg/mL"},
      {"measurement": "Papp", "setting": "in vitro [5]", "value": 7.6, "unit": "×10⁻⁶ cm/s"},
      {"measurement": "EC50", "setting": "CHIKV [6]", "value": 50, "unit": "µM"},
      {"measurement": "half-life", "setting": "in vitro [7]", "value": "> 30", "unit": "min"},
      {"measurement": "EC50", "setting": "WEEV [8]", "value": 14.6, "unit": "µM"},
      {"measurement": "EC50", "setting": "VEEV-Trinidad; A549", "value": 9.5, "unit": "µM"},
      {"measurement": "EC50", "setting": "VEEV-Trinidad; A549, read-out: VEEV-Trinidad EC50", "value": 9.45, "unit": "µM"},
      {"measurement": "CC50", "setting": "in vitro [9]; African green monkey", "value": "> 100", "unit": "µM"},
      {"measurement": "CC50", "setting": "in vitro [9]; human", "value": "> 50", "unit": "µM"}
    ]},
    {"smiles": "O=C(CSc1ccccn1)Nc1nonc1[N+](=O)[O-]", "note": "[MLS001030320-01]", "values": [
      {"measurement": "IC50", "setting": "VEEV nsP2 protease [10]; read-out: IC50", "value": "> 100", "unit": "µM"},
      {"measurement": "CC50", "setting": "cell viability", "value": "> 50", "unit": "µM"},
      {"measurement": "EC50", "setting": "VEEV-Trd; read-out: EC50", "value": "> 50", "unit": "µM"}
    ]},
    {"smiles": "O=C(/C=C/c1cccs1)Nc1scc(-c2ccccc2)c1C(=O)O", "note": "[MLS000773385-01]", "values": [
      {"measurement": "IC50", "setting": "VEEV nsP2 protease [10]", "value": "15 ± 2", "unit": "µM"},
      {"measurement": "EC50", "setting": "VEEV-Trd; [15]", "value": "> 50", "unit": "µM"},
      {"measurement": "CC50", "setting": "in vitro [11]", "value": "> 50", "unit": "µM"}
    ]},
    {"smiles": "O=C(Nc1ccccc1)NN(C(=O)CCl)c1ccccc1", "note": "[MLS001177992-01]", "values": [
      {"measurement": "CC50", "setting": "cell viability", "value": "> 50", "unit": "µM"},
      {"measurement": "EC50", "setting": "VEEV-Trd; read-out: EC50", "value": "> 50", "unit": "µM"}
    ]},
    {"smiles": "CC(=O)NC1C(=O)N(CCN2CCOCC2)c2ccc(F)cc21", "note": "(centres unmarked) [MLS001215963-01]", "values": [
      {"measurement": "IC50", "setting": "VEEV nsP2 protease [10]", "value": "16 ± 3", "unit": "µM"}
    ]},
    {"smiles": "CC(C)CCNC(=O)C(CC(C)C)NC(=O)C1OC1C(=O)O", "note": "(centres unmarked) [NCGC00018306-02]", "values": [
      {"measurement": "concentration showing inhibition in cell-based assays", "setting": "VEEV-Trd", "value": "< 15", "unit": "µM"}
    ]},
    {"smiles": "CC(=O)NC1C(=O)N(CCN2CCOCC2)c2ccc(Br)cc21", "note": "(centres unmarked) [MLS001215987-01]", "values": [
      {"measurement": "IC50", "setting": "VEEV nsP2 protease [10]", "value": "14 ± 3", "unit": "µM"},
      {"measurement": "EC50", "setting": "VEEV-Trd; [15]", "value": "> 50", "unit": "µM"},
      {"measurement": "CC50", "setting": "in vitro [11]", "value": "> 50", "unit": "µM"}
    ]},
    {"smiles": "Cc1cc(C(=O)CCl)c(C)n1-c1cccc([N+](=O)[O-])c1", "note": "[MLS000877947-01]", "values": [
      {"measurement": "IC50", "setting": "VEEV nsP2 protease [10]; read-out: IC50", "value": "> 200", "unit": "µM"},
      {"measurement": "CC50", "setting": "cell viability", "value": "> 50", "unit": "µM"},
      {"measurement": "EC50", "setting": "VEEV-Trd; read-out: EC50", "value": "> 50", "unit": "µM"}
    ]},
    {"smiles": "O=c1[nH]c2ccccc2n1CCCN1CCN(C(c2ccccc2)c2ccccc2)CC1", "note": "[oxatomide]", "values": [
      {"measurement": "antiviral activity in plaque assays", "setting": "VEEV Trinidad", "value": "notable antiviral activities"},
      {"measurement": "reduction of VEEV viral replication in plaque assays", "setting": "VEEV Trinidad", "value": "> 5", "unit": "log"}
    ]},
    {"smiles": "COc1ccc(C2CC(c3cccs3)=NN2C(=O)CCl)cc1OC", "note": "(centres unmarked) [MLS001178292-01]", "values": [
      {"measurement": "IC50", "setting": "VEEV nsP2 protease [10]; read-out: IC50", "value": "> 200", "unit": "µM"},
      {"measurement": "CC50", "setting": "cell viability", "value": "> 50", "unit": "µM"},
      {"measurement": "cytotoxicity", "setting": "cell viability", "value": "cytotoxic"},
      {"measurement": "antiviral activity against VEEV-Trd in cell-based assays", "setting": "VEEV-Trd; at 50 µM", "value": "did not demonstrate significant antiviral activity"}
    ]},
    {"smiles": "CCCNC(=O)[C@H]1O[C@@H]1C(=O)N[C@H](C(=O)N1CCC[C@H]1C(=O)OC)[C@@H](C)CC", "note": "[CA074me, CA074 methyl ester]", "values": [
      {"measurement": "PAMPA", "value": 33, "unit": "×10⁻⁶ cm/s"},
      {"measurement": "Average titer", "setting": "EEEV [12]", "value": "3.12 × 10^4 and 3.20 × 10^6 and 3.18 × 10^7 and 4.57 × 10^7"},
      {"measurement": "reduction in PFU", "setting": "EEEV [12]", "value": 2, "unit": "log"},
      {"measurement": "reduction in plaque forming units (PFU)", "setting": "VEEV Trinidad", "value": "~ 5 log"},
      {"measurement": "reduction in PFU", "setting": "WEEV [13]", "value": 2, "unit": "log"},
      {"measurement": "Rat_SD/Microsomes t1/2", "setting": "[3]", "value": 11.1, "unit": "m"},
      {"measurement": "reduction in PFU", "setting": "CHIKV [14]", "value": 2, "unit": "log"},
      {"measurement": "Ki", "setting": "VEEV nsP2 protease [4]; Ki", "value": "1200 ± 500", "unit": "µM"},
      {"measurement": "solubility", "setting": "physchem", "value": 22, "unit": "µg/mL"},
      {"measurement": "efficacy in plaque assays", "setting": "VEEV", "value": "effective"},
      {"measurement": "reduction in plaque-forming units (PFU)", "setting": "VEEV", "value": "~6", "unit": "log"},
      {"measurement": "viral titer reduction", "setting": "VEEV", "value": "> 5", "unit": "logs"},
      {"measurement": "Papp", "setting": "in vitro [5]", "value": 33, "unit": "×10⁻⁶ cm/s"},
      {"measurement": "half-life", "setting": "in vitro [7]", "value": 11.1, "unit": "min"},
      {"measurement": "EC50", "setting": "VEEV-Trinidad; A549", "value": 11, "unit": "µM"},
      {"measurement": "CC50", "setting": "in vitro [9]; African green monkey", "value": "> 100", "unit": "µM"}
    ]},
    {"smiles": "Cc1ccc(C2=NN(C(=O)CCl)C(c3ccco3)C2)o1", "note": "(centres unmarked) [MLS001179882-01]", "values": [
      {"measurement": "IC50", "setting": "VEEV nsP2 protease [10]; read-out: IC50", "value": "> 200", "unit": "µM"},
      {"measurement": "CC50", "setting": "cell viability", "value": "> 50", "unit": "µM"},
      {"measurement": "EC50", "setting": "VEEV-Trd; read-out: EC50", "value": "> 50", "unit": "µM"}
    ]},
    {"smiles": "C#Cc1cc(N2CCN(C(=O)c3ccoc3)CC2)n2nc(-c3cccc(Cl)c3)cc2n1", "note": "[MLS003116111-01]", "values": [
      {"measurement": "antiviral activity in plaque assays", "setting": "VEEV Trinidad", "value": "notable antiviral activities"}
    ]},
    {"smiles": "CCc1nc(N2CCN(C(=O)CCl)CC2)c2c3c(sc2n1)CC(C)CC3", "note": "(centres unmarked) [MLS001212815-01]", "values": [
      {"measurement": "IC50", "setting": "VEEV nsP2 protease [10]; read-out: IC50", "value": "> 200", "unit": "µM"},
      {"measurement": "CC50", "setting": "cell viability", "value": "> 50", "unit": "µM"},
      {"measurement": "EC50", "setting": "VEEV-Trd; read-out: EC50", "value": "> 50", "unit": "µM"}
    ]},
    {"smiles": "O=c1cc(N2CCOCC2)oc2c1ccc1ccccc12", "note": "[NCGC00165840-02]", "values": [
      {"measurement": "Permeability (PAMPA_Pion_Lipid)", "setting": "PAMPA", "value": 294.2, "unit": "×10⁻⁶ cm/s"},
      {"measurement": "Rat_SD/Microsomes t1/2", "setting": "[3]", "value": ">30", "unit": "m"}
    ]}
  ]
}
